This series relates to users suffering with headaches. The experiment in a line: Inhalation of pure AITC vapor through the nostrils by users with headaches. The format is in vivo. The protocol:
In the present invention AITC is taken in to its purest form. To treat headache instantly, Purest AITC needs to be inhaled deeply for up to 5 seconds in each nostril. If it is taken correctly, due to its pungency and potency, the vapor of AITC will instantly felt inside on the top of the crown of the user's head.
If AITC is inhaled properly and as directed, most users will be out of irritation in less than 2 minutes.
In current studies we have used pure AITC in above mentioned quantity into small dark thick glass vials with aluminum seal and tight screw caps. The bottles are also very small mouth.

In the case of `C=CCN=C=S` [AITC, Allyl isothiocyanate], the “time until users are out of irritation after inhalation” value (AITC inhaled properly and as directed, most users) is “less than 2 minutes”. The “nasal mucus, sinus pressure and sinus headache” value (inhalation) was “relives sinusitis pressure and sinus headaches”. Under “inhalation remedy”, the “addiction or rebound headaches” value is on record as “does not lead to addiction or rebound headaches” and the side effects entry is on record as “does not have any side effects”. The headache relief entry (inhalation, users with headaches) was “headache is also relieved”. Also, the “irritation and lachrymal effect on deep inhalation” value (inhaled deeply) was “instantly irritated and most likely get tears from eyes”. For the same molecule, where the note is “natural (from mustard seeds, horseradish or wasabi) vs synthetic (99.9% pure)”, the “natural versus synthetic AITC in treating headaches” value is “almost same result in treating headaches”. Further, the “time to relief from headache pain” value (pure AITC inhaled as directed, most users suffering with headaches) is reported as “relived from pain in seconds in most cases or up to couple of minutes”.

Source of the values: patent US20200138750A1, “Use of Mustard Seed Oil (Allyl Isothiocyanate) to relieve headache pain” (priority 2018, published 2020).
